Measurements: patent US9212151B2, “Heterocyclic compounds useful for kinase inhibition” (Amitech Therapeutic Solutions, Inc., priority 2010, dated 2015)

Assay: MTT cell viability assay, compounds at 5, 1 and 0.2 μM, 48 hours
Type: cell-based
Settings: human, A549 tumor cells
Experimental: MTT assay is used to determine cell proliferation, percent of viable cells, and cytotoxicity. MTT (3-[4,5-dimethylthiazol-2-yl]2,5-diphenyltetrazolium bromide) is a yellow dye, which can be absorbed by the living cells and be reduced to purplish blue formazan crystals by succinate tetrazolium reductase in mitochondria. Formazan formation can therefore be used to assess and determine the survival rate of cells.
Tumor cells (A549) were plated at 2500 cells/well of a 96-well plate in complete growth medium (DMEM+10% FBS, antibiotic/antimycotic, fungizone, L-glutamine, sodium pyruvate, and non-essential amino acids). The cells were allowed to grow overnight. After cell proliferation, the cells were washed and re-suspended in fresh culture medium and placed in 96 well plates.
To each of the 96 well plates containing A549 and a control, 5, 1, and 0.2 μM of the exemplary compounds 1-200 were add. The 96 well plates were incubated for 48 hours. Cell viability was measured by adding MTT (Sigma) at 5 mg/ml for 4 h to the cells and then removing the medium and resuspending each well in 50 μl DMSO to solubilize the crystals. The 96-well plates were read on a plate-scanning spectrophotometer (BioTek) at an absorbance of […]. The survival rate of cells was calculated based on the measurement of absorption at the 570 nm wavelength by enzyme immunoassay analyzer.

SMILES	viability at 48 h, 0.2 µM (0.2 μM) [%]	viability at 48 h, 1 µM (1 μM) [%]	viability at 48 h, 5 µM (5 μM) [%]	viability at 48 h, 0.2 µM (0.2 μM compound) [%]	viability at 48 h, 1 µM (1 μM compound) [%]	viability at 48 h, 5 µM (5 μM compound) [%]
CCOc1nc(N)cc(Oc2ccc(-c3nnc(Nc4cccc(C(F)(F)F)c4)[nH]3)cc2)n1 [Compound 79]	> 70	< 50	< 50			
CCc1cccc(Nc2nnc(-c3ccc(Oc4cc(N)nc(SC)n4)cc3)[nH]2)c1 [Compound 122]	> 70	> 70	< 50			
FC(F)(F)c1cccc(Nc2nnc(-c3ccc(OCc4ccncc4)cc3)[nH]2)c1 [Compound 143]	> 70	> 70	> 70			
FC(F)(F)c1cccc(Nc2nnc(-c3ccc(Oc4ccnc(Cl)c4)cc3)[nH]2)c1 [Compound 6]	> 70	50 to 70	< 50			
Oc1ccc(Nc2nnc(-c3cccc(Cl)c3)[nH]2)cc1 [Compound 182]	> 70	> 70	> 70			
C[S+]([O-])c1nc(N)cc(Oc2ccc(-c3nnc(Nc4cccc(C(F)(F)F)c4)[nH]3)cc2)n1 (stereo not drawn) [Compound 63]	> 70	> 70	50 to 70			
FC(F)(F)Oc1ccc2c(Oc3cccc(-c4nnc(Nc5cccc(C(F)(F)F)c5)[nH]4)c3)ccnc2c1 [Compound 173]	> 70	> 70	> 70			
Nc1cc(Oc2cccc(-c3nnc(Nc4cccc(C(F)(F)F)c4)[nH]3)c2)nc(N)n1 [Compound 13]	> 70	> 70	50 to 70			
NCCSc1nc(N)cc(Oc2ccc(-c3nnc(Nc4cccc(C(F)(F)F)c4)[nH]3)cc2)n1 [Compound 62]	> 70	> 70	> 70			
CSc1nc(N)cc(Oc2ccc(-c3cnc(Nc4cccc(C(F)(F)F)c4)[nH]3)cc2)n1 [Compound 199]				< 50	< 50	< 50
COc1ccc2c(Oc3ccc(-c4nnc(Nc5cccc(C(F)(F)F)c5)[nH]4)cc3)cc(C)nc2c1 [Compound 188]	> 70	> 70	> 70			
CC(C)(C)Sc1nc(N)cc(Oc2cccc(-c3nnc(Nc4cccc(C(F)(F)F)c4)[nH]3)c2)n1 [Compound 98]	> 70	> 70	> 70			
COCCOc1nc(N)cc(Oc2cccc(-c3nnc(Nc4cccc(C(F)(F)F)c4)[nH]3)c2)n1 [Compound 96]	> 70	> 70	> 70			
Cc1ccc(-c2nnc(Nc3cccc(C(F)(F)F)c3)[nH]2)cc1Oc1cccnc1 [Compound 177]	> 70	> 70	> 70			
CSc1nc(N)cc(Oc2ccc(-c3nnc(Nc4cccc(C(F)(F)F)c4)[nH]3)cc2C)n1 [Compound 102]	> 70	> 70	> 70			
COc1nccc(Oc2cccc(-c3nnc(Nc4cccc(C(F)(F)F)c4)[nH]3)c2)n1 [Compound 88]	> 70	> 70	> 70			
Nc1cc(Oc2ccc(-c3nnc(Nc4cccc(C(F)(F)F)c4)s3)cc2)nc(N)n1 [Compound 43]	> 70	> 70	> 70			
FC(F)(F)c1cccc(Nc2nnc(-c3cccc(Oc4ccnc5cc(C(F)(F)F)ccc45)c3)[nH]2)c1 [Compound 165]	> 70	> 70	> 70			

SMILES	viability at 48 h, 0.2 µM (0.2 μM) [%]	viability at 48 h, 1 µM (1 μM) [%]	viability at 48 h, 5 µM (5 μM) [%]	viability at 48 h, 0.2 µM (0.2 μM compound) [%]	viability at 48 h, 1 µM (1 μM compound) [%]	viability at 48 h, 5 µM (5 μM compound) [%]
Nc1cc(Oc2ccc(-c3nnc(Nc4cccc(C(F)(F)F)c4)[nH]3)cc2)nc(NCCO)n1 [Compound 61]	> 70	> 70	> 70			
FC(F)(F)c1cccc(Nc2nnc(-c3ccc(Oc4nccc(Cl)n4)cc3)o2)c1 [Compound 26]	> 70	> 70	> 70			
COc1nc(N)cc(Oc2ccc(-c3nnc(Nc4cccc(C(F)(F)F)c4)[nH]3)cc2)n1 [Compound 72]	> 70	> 70	< 50			
Fc1ccc2c(Oc3ccc(-c4nnc(Nc5cccc(C(F)(F)F)c5)[nH]4)cc3)ccnc2c1 [Compound 186]	> 70	> 70	> 70			
COc1ccc(Nc2nnc(-c3cccc(C(F)(F)F)c3)[nH]2)cc1 [Compound 183]	> 70	> 70	> 70			
CSc1nc(N)cc(Oc2ccc(-c3nnc(Nc4cccc(C(=O)O)c4)[nH]3)cc2)n1 [Compound 153]	> 70	> 70	> 70			
COc1nc(N)cc(Oc2cccc(-c3nnc(Nc4cccc(C(F)(F)F)c4)[nH]3)c2)n1 [Compound 89]	> 70	> 70	> 70			
FC(F)(F)c1cccc(Nc2nnc(-c3cccc(Oc4nccc5ccccc45)c3)[nH]2)c1 [Compound 166]	> 70	> 70	> 70			
CSc1nc(N)cc(Oc2ccc(-c3nnc(Nc4ccc5c(c4)-c4ccccc4C5)[nH]3)cc2)n1 [Compound 136]	> 70	50 to 70	< 50			
COCCCNc1cc(Oc2ccc(-c3nnc(Nc4cccc(C(F)(F)F)c4)[nH]3)cc2)nc(SC)n1 [Compound 145]	> 70	> 70	< 50			
COC(=O)c1cccc(Nc2nnc(-c3ccc(Oc4cc(N)nc(SC)n4)cc3)[nH]2)c1 [Compound 138]	> 70	> 70	< 50			
Nc1nccc(Oc2ccc(-c3nnc(Nc4cccc(C(F)(F)F)c4)[nH]3)cc2)n1 [Compound 1]	> 70	50 to 70	50 to 70			
CSc1nc(N)cc(Oc2ccc(-c3nnc(Nc4ccccc4C)[nH]3)cc2)n1 [Compound 154]	50 to 70	< 50	< 50			
Nc1cc(Oc2ccc(-c3nnc(Nc4cccc(C(F)(F)F)c4)o3)cc2)ccn1 [Compound 59]	> 70	> 70	> 70			
Nc1cc(Oc2ccc(-c3nnc(Nc4cccc(C(F)(F)F)c4)[nH]3)cc2)c2ccccc2n1 [Compound 69]	> 70	> 70	> 70			
COc1ccc2nccc(Oc3ccc(-c4nnc(Nc5cccc(C(F)(F)F)c5)[nH]4)cc3)c2c1 [Compound 185]	> 70	> 70	> 70			
Cc1ccc2nccc(Oc3cccc(-c4nnc(Nc5cccc(C(F)(F)F)c5)[nH]4)c3)c2c1 [Compound 172]	> 70	> 70	50 to 70			
Cc1cc(Oc2cccc(-c3nnc(Nc4cccc(C(F)(F)F)c4)[nH]3)c2)ccn1 [Compound 91]	> 70	> 70	50 to 70			
